Experimental data: the supplement of paper PMC10307832

Columns and labels:
Experiment in all cases: relative viability (nuclei count vs DMSO), 5 days (fraction); higher = more cells survive
Lapatinib + Tozasertib = compound: CS(=O)(=O)CCNCc1ccc(-c2ccc3ncnc(Nc4ccc(OCc5cccc(F)c5)c(Cl)c4)c3c2)o1 [Lapatinib] + Cc1cc(Nc2cc(N3CCN(C)CC3)nc(Sc3ccc(NC(=O)C4CC4)cc3)n2)n[nH]1 [Tozasertib] (partner 0.1 µM)
Summary of the method: (§1)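 After 5 days of treatment, lung cancer cells in 1536-well plates were fixed and stained in a single step (final 0.05% Triton X-100, 1% formaldehyde, 1 ug/ml Hoechst) and their nuclei counted on 4× images. Treatment had been applied by pin tool the day after seeding as one drug alone or as a fixed anchor-drug dose with five library-drug doses (not always all listed) in √10 steps. Relative viability is the nuclei count of treated wells divided by that of vehicle wells, and values are medians of duplicate plates.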

Wnt-C59 + Luminespib = compound: CC1=NC=CC(=C1)C2=CC=C(C=C2)CC(=O)NC3=CC=C(C=C3)C4=CN=CC=C4 [Wnt-C59] + CCNC(=O)c1noc(-c2cc(C(C)C)c(O)cc2O)c1-c1ccc(CN2CCOCC2)cc1 [Luminespib] (partner 0.01 µM)
Summary of the method: as §1

Wnt-C59 + Linsitinib = compound: CC1=NC=CC(=C1)C2=CC=C(C=C2)CC(=O)NC3=CC=C(C=C3)C4=CN=CC=C4 [Wnt-C59] + C[C@]1(O)C[C@@H](c2nc(-c3ccc4ccc(-c5ccccc5)nc4c3)c3c(N)nccn32)C1 [Linsitinib] (partner 1 µM)
Summary of the method: as §1

Wnt-C59 + Bortezomib = compound: CC1=NC=CC(=C1)C2=CC=C(C=C2)CC(=O)NC3=CC=C(C=C3)C4=CN=CC=C4 [Wnt-C59] + CC(C)C[C@H](NC(=O)[C@H](Cc1ccccc1)NC(=O)c1cnccn1)B(O)O [Bortezomib] (partner 0.002 µM)
Summary of the method: as §1

Cell Line | relative viability (Lapatinib + Tozasertib; first compound 0.02 µM) | relative viability (Lapatinib + Tozasertib; first compound 0.2 µM) | relative viability (Lapatinib + Tozasertib; first compound 0.6325 µM) | relative viability (Lapatinib + Tozasertib; first compound 2 µM) | relative viability (Wnt-C59 + Luminespib; first compound 0.001 µM) | relative viability (Wnt-C59 + Luminespib; first compound 0.03162 µM) | relative viability (Wnt-C59 + Luminespib; first compound 0.1 µM) | relative viability (Wnt-C59 + Linsitinib; first compound 0.001 µM) | relative viability (Wnt-C59 + Linsitinib; first compound 0.01 µM) | relative viability (Wnt-C59 + Linsitinib; first compound 0.03162 µM) | relative viability (Wnt-C59 + Linsitinib; first compound 0.1 µM) | relative viability (Wnt-C59 + Bortezomib; first compound 0.001 µM) | relative viability (Wnt-C59 + Bortezomib; first compound 0.01 µM) | relative viability (Wnt-C59 + Bortezomib; first compound 0.03162 µM) | relative viability (Wnt-C59 + Bortezomib; first compound 0.1 µM) | relative viability (Lapatinib + Tozasertib; first compound 0.06325 µM) | relative viability (Wnt-C59 + Luminespib; first compound 0.01 µM)
NCI-H727 | 0.602 | 0.704 | 0.453 | 0.391 | 0.332 | 0.857 | 0.526 | 0.399 | 0.277 | 0.269 | 0.258 | 0.948 | 0.782 | 0.951 | 1.08 | – | –
NCI-H322M | 0.437 | 0.395 | 0.477 | 0.343 | 0.978 | 0.737 | 0.809 | 1.07 | 0.775 | 0.758 | 0.685 | 1.25 | 1.25 | 1.23 | 1.12 | 0.457 | 0.737
NCI-H650 | – | 0.781 | 0.698 | 0.601 | 0.752 | 0.865 | 0.718 | 0.919 | 0.916 | 0.828 | 0.926 | 0.85 | 1.08 | 0.72 | 0.888 | 0.648 | 0.751
NCI-H596 | – | 0.856 | 0.779 | 0.567 | 1.14 | 1.06 | 1.06 | 1.04 | 0.954 | 1.16 | 1.1 | 0.837 | 1.08 | 1.12 | – | 0.741 | 1.08
PC-3 [JPC-3] | 0.876 | 0.909 | 0.803 | 0.506 | 0.782 | 0.913 | 0.696 | 0.964 | 0.942 | 1.01 | 0.961 | 0.874 | 0.782 | 0.881 | 0.856 | 0.83 | 0.817
NCI-H1355 | – | 0.498 | 0.494 | 0.26 | 0.774 | 0.649 | 0.626 | 0.875 | 0.779 | 0.881 | 0.673 | 1.18 | 1.05 | 1.23 | 1.1 | 0.416 | 0.693
COR-L23 | 0.149 | 0.152 | 0.165 | 0.109 | 0.758 | 0.742 | 0.617 | 1 | 0.893 | 1.08 | 0.837 | 1.02 | 0.944 | 0.912 | 0.95 | 0.131 | 0.667
201T | 0.967 | 0.886 | 0.923 | 0.792 | 1.03 | 0.996 | 1.02 | 1.02 | 1.04 | 1.06 | 1.04 | 1.14 | 1.08 | 1.13 | 1.13 | 0.716 | 1.07
NCI-H661 | 0.377 | 0.358 | 0.348 | 0.352 | 0.904 | 0.972 | 0.912 | 0.581 | 0.621 | 0.548 | 0.723 | 0.616 | 0.758 | 0.903 | 0.805 | 0.367 | 0.911
HCC-15 | – | 0.371 | 0.424 | 0.283 | 0.399 | 0.287 | 0.369 | 0.922 | 0.96 | 0.856 | 0.928 | 1.01 | 1.02 | 1.03 | 0.994 | 0.382 | 0.297
NCI-H2405 | 0.665 | 0.807 | 0.759 | 0.561 | 0.762 | 0.7 | 0.842 | 1.03 | – | 0.887 | 0.875 | 0.978 | 0.962 | 0.944 | 0.95 | 0.694 | 0.809
NCI-H838 | 0.235 | 0.256 | 0.258 | 0.221 | 0.279 | 0.311 | 0.303 | 1.07 | 0.997 | 1.01 | 1.04 | 0.905 | 0.655 | 0.739 | 0.754 | 0.257 | 0.347
EPLC-272H | – | 0.21 | 0.2 | 0.239 | 0.309 | 0.389 | 0.302 | 1.29 | 1.23 | 1.08 | 1.15 | 1 | 0.934 | 1.03 | 0.877 | – | 0.519
NCI-H1915 | – | 0.437 | 0.383 | 0.319 | 0.867 | 0.986 | 0.785 | 1.07 | 1.04 | 1.12 | 1.09 | 0.943 | 0.951 | 1.05 | 0.934 | 0.367 | 0.74
EMC-BAC-2 | 0.309 | 0.309 | 0.319 | 0.299 | 1.18 | 1.06 | 1.12 | 0.736 | 0.642 | 0.741 | 0.709 | 0.913 | 0.926 | 0.998 | 0.943 | 0.344 | 1.05
